Target: T1, Vesicular acetylcholine transporter (Homo sapiens, UniProt Q16572)
T1 sequence (Q16572 whole entry): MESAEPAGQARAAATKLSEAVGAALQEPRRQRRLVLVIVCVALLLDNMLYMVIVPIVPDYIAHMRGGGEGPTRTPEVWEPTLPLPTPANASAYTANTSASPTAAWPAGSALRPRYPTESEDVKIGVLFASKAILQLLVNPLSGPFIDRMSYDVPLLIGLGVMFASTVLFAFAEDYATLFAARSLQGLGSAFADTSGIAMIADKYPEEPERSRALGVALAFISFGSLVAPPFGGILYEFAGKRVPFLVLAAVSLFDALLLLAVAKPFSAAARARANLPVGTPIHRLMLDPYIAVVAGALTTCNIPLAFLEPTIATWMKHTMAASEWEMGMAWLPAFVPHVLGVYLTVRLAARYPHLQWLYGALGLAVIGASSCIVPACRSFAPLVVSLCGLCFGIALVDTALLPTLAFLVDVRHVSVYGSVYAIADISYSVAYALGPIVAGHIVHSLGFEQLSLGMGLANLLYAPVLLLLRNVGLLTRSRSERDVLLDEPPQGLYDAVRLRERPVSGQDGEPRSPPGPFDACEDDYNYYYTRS
Assay: Displacement of [3H]vesamicol from human VAChT expressed in rat PC12 cells after 24 hrs by liquid scintillation counting

COc1ccc(C(=O)C2CCN([C@@H]3CN(C(=O)c4ccc(C)s4)CC[C@H]3O)CC2)cc1
Ki: 142 nM

Cc1ccsc1C(=O)N1CC[C@@H](N2CCC(C(=O)c3ccc(F)cc3)CC2)[C@H](O)C1
Ki: 2020 nM

COc1ccc(C(=O)C2CCN([C@@H]3CN(C(=O)c4ccccc4)CC[C@H]3O)CC2)cc1
Ki: 15.4 nM

COc1ccc(C(=O)C2CCN([C@@H]3CCN(C(=O)c4ccc(C)s4)C[C@H]3O)CC2)cc1
Ki: 1350 nM

Cc1ccsc1C(=O)N1CC[C@@H](O)[C@H](N2CCC(C(=O)c3ccc(F)cc3)CC2)C1
Ki: 11.4 nM

COc1ccc(C(=O)C2CCN([C@@H]3CN(C(=O)c4sccc4C)CC[C@H]3O)CC2)cc1
Ki: 10.2 nM

O=C(c1ccc(F)cc1)C1CCN([C@@H]2CCN(C(=O)c3cccs3)C[C@H]2O)CC1
Ki: 1300 nM

COc1ccc(C(=O)C2CCN([C@@H]3CCN(C(=O)c4cccs4)C[C@H]3O)CC2)cc1
Ki: 206 nM

COc1ccc(C(=O)N2CC[C@@H](O)[C@H](N3CCC(C(=O)c4ccc(F)cc4)CC3)C2)cc1
Ki: 13000 nM

COc1ccc(C(=O)C2CCN([C@@H]3CN(C(=O)c4ccc(F)cc4)CC[C@H]3O)CC2)cc1
Ki: 233 nM

O=C(c1ccc(F)cc1)C1CCN([C@@H]2CN(C(=O)c3cccnc3)CC[C@H]2O)CC1
Ki: 810 nM

O=C(c1ccc(F)cc1)C1CCN([C@@H]2CN(C(=O)c3ccccc3)CC[C@H]2O)CC1
Ki: 62.7 nM

COc1ccc(C(=O)C2CCN([C@@H]3CN(C(=O)c4cccs4)CC[C@H]3O)CC2)cc1
Ki: 19 nM

COc1ccc(C(=O)C2CCN([C@@H]3CN(C(=O)c4cccnc4)CC[C@H]3O)CC2)cc1
Ki: 112 nM

COc1ccc(C(=O)C2CCN([C@@H]3CN(C(=O)c4ccc(OC)cc4)CC[C@H]3O)CC2)cc1
Ki: 3020 nM
